Experiments:
TGF-β = experiment: Inhibition of TGF-β activity in melanoma cells (immunofluorescence, western blotting); format: cell-based; settings: SD208 1 μmol/L, TGF-β 5 ng/m, 24 hours, B16F10 melanoma cells
Procedure: 5×10^4 B16F10 melanoma cells per well of a cell culture plate were cultured in a 12-well plate using Dulbecco's Modified Eagle Medium (DMEM), and then treated with the immunoadjuvant SD208 (1 μmol/L) and the tumor marker TGF-β (5 ng/m) for 24 hours. Thereafter, cells were treated with an anti-α-tubulin Alexa 488 fluorescent antibody and 4′,6-diamidino-2-phenylindole (DAPI), and then imaged using the STELLARIS 8 STED confocal laser scanning microscope.
In addition, changes in the expression levels of proteins activated by TGF-β were confirmed by western blotting using anti-Psmad3, anti-smad3, anti-N-cadherin, and anti-E-cadherin antibodies.

B16F10 melanoma cells [1] = experiment: Wound healing, 2D melanoma cell culture; format: cell-based; settings: SD208 1 μmol/L, TGF-β 5 ng/m, 24 hours, 2D culture
Procedure: For 2D cell culture, 8×10^4 B16F10 melanoma cells were cultured in a 12-well plate using DMEM until the wells were full. Thereafter, the cells filling the wells were scratched in a cross shape to create a wound, and treated with the immunoadjuvant SD208 (1 μmol/L) and the tumor marker TGF-β (5 ng/m) for 24 hours, and the wound healing rate over time was imaged using a microscope.

B16F10 melanoma cells [2] = experiment: Melanoma cell spheroid volume, 3D cell culture; format: cell-based; settings: SD208 1 μmol/L, TGF-β 5 ng/m, eight days, 3D culture
Procedure: For 3D cell culture, 1,000 B16F10 melanoma cells per 100 μl of DMEM were placed in a PCR tube and collected at the bottom by centrifugation. After culturing the cells in the PCR tubes for three days, they were transferred to a 96-well plate and treated with DMEM containing the immunoadjuvant SD208 (1 μmol/L) and the tumor marker TGF-β (5 ng/m). The DMEM was exchanged with fresh DMEM every three days, and the changes in the size of melanoma cell spheroids were measured for eight days using a microscope.

PD-L1 = experiment: Inhibition of PD-L1 protein expression in melanoma cells (confocal, flow cytometry); format: cell-based; settings: SD208 1 μmol/L, TGF-β 5 ng/m, 24 hours, B16F10 melanoma cells
Procedure: 5×10^4 B16F10 melanoma cells per well of a cell culture plate were cultured in a 12-well plate using DMEM, and then treated with the immunoadjuvant SD208 (1 μmol/L) and the tumor marker TGF-β (5 ng/m) for 24 hours.
Thereafter, the cells were imaged using a STELLARIS 8 STED confocal laser scanning microscope after treatment with an anti-PD-L1 Alexa 488 fluorescent antibody. In addition, the fluorescence expression level of the PD-L1 protein was confirmed through flow cytometry.

[3] = Confocal imaging of fluorescent substances in composite solvent microstructure; format: physicochemical; settings: PBS:DMSO 9:1, 20% (w/v) hyaluronic acid
Procedure: The fluorescein isothiocyanate (FITC) fluorescent substance which is soluble only in a water-soluble solvent, and the Cy5.5 fluorescent substance, which is soluble only in a fat-soluble solvent, were added to a composite solvent containing a mixture of a water-soluble solvent (PBS) and a fat-soluble solvent (DMSO) in a ratio of 9:1 (10% (v/v) fat-soluble) and 20% (w/v) hyaluronic acid was further dissolved, and microstructures were fabricated using the method of Manufacturing Example 1. Thereafter, the composite solvent fluorescence microstructures were imaged using the STELLARIS 8 STED confocal laser scanning microscope.

With `Fc1ccc(Cl)cc1-c1nc(Nc2ccncc2)c2nccnc2n1` [SD208] the “effect of TGF-β” value (TGF-β) was “inhibited the effect of TGF-β”, the “expression of proteins activated by TGF-β” value (TGF-β; Psmad3, smad3, N-cadherin, E-cadherin) was “suppressing the expression of proteins activated by TGF-β” and the “wound healing effect by TGF-β” value (B16F10 melanoma cells [1]) was “inhibited”. The “melanoma cell spheroid volume increase effect caused by TGF-β” value (B16F10 melanoma cells [2]) was “inhibited” and the “fluorescence value of PD-L1 (PD-L1 expression)” value (PD-L1) was “decreased”.

For Cy5.5, the “distribution within the microstructure” value [3] was “evenly distributed”.
